Molecular target: nsp12 (Severe acute respiratory syndrome coronavirus 2, UniProt P0DTD1)
Assay: SPR binding to nsp12
Parameters: species or system SARS-CoV-2

CC1(C)[C@@H](O)CC[C@]2(C)[C@H]3C(=O)C=C4[C@@H]5C[C@@](C)(C(=O)O)CC[C@]5(C)CC[C@@]4(C)[C@]3(C)CC[C@@H]12 [GA, glycyrrhetinic acid]
Kd: 416 µM

From article PMC8620242 (Journal of Advanced Research, 2021)
